{"source": "ChEMBL document CHEMBL1201862", "about": "“PubChem BioAssay data set” (2004)", "key": {"[1]": {"biological_target": "T1, Type-1 angiotensin II receptor (Homo sapiens, UniProt P30556)", "T1 sequence (P30556 whole entry)": "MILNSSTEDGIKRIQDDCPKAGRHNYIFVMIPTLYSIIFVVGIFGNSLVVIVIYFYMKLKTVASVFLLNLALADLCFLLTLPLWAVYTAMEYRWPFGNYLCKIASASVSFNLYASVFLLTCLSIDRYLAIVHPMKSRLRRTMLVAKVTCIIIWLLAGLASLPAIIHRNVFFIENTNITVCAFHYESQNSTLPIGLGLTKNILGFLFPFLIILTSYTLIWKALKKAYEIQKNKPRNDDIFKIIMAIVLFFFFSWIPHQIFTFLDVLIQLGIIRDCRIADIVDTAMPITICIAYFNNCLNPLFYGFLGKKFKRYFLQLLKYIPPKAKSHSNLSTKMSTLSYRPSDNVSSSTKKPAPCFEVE", "test": "antagonism of angiotensin II type 1 receptor – cell-based, uHTS hits, selectivity assay for APJ receptor antagonist project, dose response (AID 463214);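 also: antagonist potency against angiotensin II stimulated AT1 response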", "assay_type": "functional"}, "Beta-galactosidase": {"biological_target": "Beta-galactosidase (Escherichia coli, UniProt Q8VNN2)", "sequence (Q8VNN2 whole entry)": "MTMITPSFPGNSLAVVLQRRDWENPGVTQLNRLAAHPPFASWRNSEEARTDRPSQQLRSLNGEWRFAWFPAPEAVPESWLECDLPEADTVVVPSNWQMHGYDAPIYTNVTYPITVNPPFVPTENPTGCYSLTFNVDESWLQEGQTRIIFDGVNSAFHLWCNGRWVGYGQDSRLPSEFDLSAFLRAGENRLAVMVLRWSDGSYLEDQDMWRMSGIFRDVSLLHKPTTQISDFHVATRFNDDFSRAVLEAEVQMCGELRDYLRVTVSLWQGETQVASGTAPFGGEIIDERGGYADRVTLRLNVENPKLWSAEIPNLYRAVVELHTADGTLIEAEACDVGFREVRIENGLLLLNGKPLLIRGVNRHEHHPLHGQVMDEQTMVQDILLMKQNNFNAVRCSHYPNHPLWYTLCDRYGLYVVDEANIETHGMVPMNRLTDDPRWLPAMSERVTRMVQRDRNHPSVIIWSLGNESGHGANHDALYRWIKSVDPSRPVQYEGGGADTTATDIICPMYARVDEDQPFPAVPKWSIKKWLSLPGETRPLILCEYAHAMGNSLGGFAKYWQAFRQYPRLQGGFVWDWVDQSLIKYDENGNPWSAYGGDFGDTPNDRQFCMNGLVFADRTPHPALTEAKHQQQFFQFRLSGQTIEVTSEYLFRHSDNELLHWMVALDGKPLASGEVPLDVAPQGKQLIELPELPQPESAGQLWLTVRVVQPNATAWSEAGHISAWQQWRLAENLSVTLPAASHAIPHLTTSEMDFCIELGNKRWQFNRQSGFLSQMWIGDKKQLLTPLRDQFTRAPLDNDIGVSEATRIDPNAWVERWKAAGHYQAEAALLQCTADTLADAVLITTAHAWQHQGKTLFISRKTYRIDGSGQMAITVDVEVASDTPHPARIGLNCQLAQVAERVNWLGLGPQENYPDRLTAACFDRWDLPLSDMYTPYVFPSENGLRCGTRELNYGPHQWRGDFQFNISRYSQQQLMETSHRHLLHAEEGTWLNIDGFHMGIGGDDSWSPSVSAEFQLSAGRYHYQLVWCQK", "test": "PubChem AID 485352", "assay_type": "functional"}, "Cytochrome P450 2C9 [2]": {"biological_target": "T2, Cytochrome P450 2C9 (Homo sapiens, UniProt P11712)", "T2 sequence (P11712 whole entry)": "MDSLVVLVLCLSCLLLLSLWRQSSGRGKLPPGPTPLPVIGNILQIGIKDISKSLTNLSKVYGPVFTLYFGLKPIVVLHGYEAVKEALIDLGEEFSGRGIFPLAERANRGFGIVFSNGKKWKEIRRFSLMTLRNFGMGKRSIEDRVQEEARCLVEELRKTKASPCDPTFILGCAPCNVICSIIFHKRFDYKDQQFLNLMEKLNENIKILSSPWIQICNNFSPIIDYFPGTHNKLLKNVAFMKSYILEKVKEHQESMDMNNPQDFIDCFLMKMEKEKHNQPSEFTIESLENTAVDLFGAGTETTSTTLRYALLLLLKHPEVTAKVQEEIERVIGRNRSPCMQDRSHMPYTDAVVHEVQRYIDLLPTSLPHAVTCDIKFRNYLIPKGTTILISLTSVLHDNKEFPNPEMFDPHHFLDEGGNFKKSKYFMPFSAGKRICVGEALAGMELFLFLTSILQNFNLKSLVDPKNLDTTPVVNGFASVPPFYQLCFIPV"}, "HEK293": {"tested_on": "HEK293", "test": "EBV LMP1 TES2 canonical NF-kB signalling blockers – cell-based, HEK293, luciferase, cherry-pick, dose response (AID 588343)", "assay_type": "functional", "conditions": "Homo sapiens"}, "[3]": {"biological_target": "T3, Latent membrane protein 1 (Human herpesvirus 4 (strain B95-8), UniProt P03230)", "T3 sequence (P03230 whole entry)": "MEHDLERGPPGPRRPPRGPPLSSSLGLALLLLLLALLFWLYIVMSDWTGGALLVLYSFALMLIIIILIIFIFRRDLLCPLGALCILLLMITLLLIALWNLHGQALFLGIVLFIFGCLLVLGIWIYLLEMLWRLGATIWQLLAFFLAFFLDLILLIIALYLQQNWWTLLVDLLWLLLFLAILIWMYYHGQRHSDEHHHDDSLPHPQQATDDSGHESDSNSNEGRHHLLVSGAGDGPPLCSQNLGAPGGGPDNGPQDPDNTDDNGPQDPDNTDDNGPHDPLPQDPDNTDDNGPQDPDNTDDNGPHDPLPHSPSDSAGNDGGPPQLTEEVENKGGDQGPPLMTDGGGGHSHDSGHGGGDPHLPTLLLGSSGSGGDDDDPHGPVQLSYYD", "test": "LMP1 TES1 pathway selectivity over dsRED control – imaging, HEK293T, dual-color eGFP/dsRED, cherry-picks, selectivity assay for LMP1 NF-kB inhibitor project, dose response (AID 588398)", "assay_type": "functional, cell-based"}, "Vero": {"tested_on": "Vero", "test": "cells", "assay_type": "functional, cell-based", "conditions": "Chlorocebus sabaeus"}, "[4]": {"test": "luciferase reporter signal suppression in cells – H4 neuroglioma cells, luminescence, dose response (AID 1990)", "assay_type": "functional, cell-based"}, "[5]": {"test": "alpha-synuclein stem-loop luciferase translation blockers – H4 neuroglioma cells, luminescence, confirmation (AID 1988)", "assay_type": "functional, cell-based"}, "[6]": {"test": "Luminescence Cell-Based Dose Response HTS to Identify Inhibitors of 5'UTR Stem-Loop Driven Prion Protein mRNA Translation in H4 Neuroglioblastoma Cells. [Related pubchem assays: 1827 (Project Summary), 1813 (Primary HTS)]", "assay_type": "functional"}, "Escherichia coli": {"tested_on": "Escherichia coli", "test": "microbe, parasite or virus in culture"}, "Cytochrome P450 2C9 [7]": {"biological_target": "T2, Cytochrome P450 2C9", "remark": "listed apart in the source"}, "Cytochrome P450 1A2": {"biological_target": "T4, Cytochrome P450 1A2 (Homo sapiens, UniProt P05177)", "T4 sequence (P05177 whole entry)": "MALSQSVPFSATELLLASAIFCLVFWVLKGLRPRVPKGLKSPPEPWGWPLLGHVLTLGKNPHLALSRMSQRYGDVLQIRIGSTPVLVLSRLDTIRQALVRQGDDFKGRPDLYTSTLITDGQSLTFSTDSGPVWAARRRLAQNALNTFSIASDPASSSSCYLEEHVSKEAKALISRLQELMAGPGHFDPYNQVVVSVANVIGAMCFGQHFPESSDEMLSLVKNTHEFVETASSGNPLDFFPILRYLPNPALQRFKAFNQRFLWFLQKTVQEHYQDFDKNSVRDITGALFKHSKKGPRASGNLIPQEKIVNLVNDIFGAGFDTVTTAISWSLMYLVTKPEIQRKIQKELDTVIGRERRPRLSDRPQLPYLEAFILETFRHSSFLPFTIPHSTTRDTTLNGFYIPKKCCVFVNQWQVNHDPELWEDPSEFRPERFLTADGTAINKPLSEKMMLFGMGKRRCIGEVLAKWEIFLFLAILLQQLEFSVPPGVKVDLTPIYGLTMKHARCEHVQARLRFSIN"}, "Cytochrome P450 2C19": {"biological_target": "Cytochrome P450 2C19 (Homo sapiens, UniProt P33261)", "sequence (P33261 whole entry)": "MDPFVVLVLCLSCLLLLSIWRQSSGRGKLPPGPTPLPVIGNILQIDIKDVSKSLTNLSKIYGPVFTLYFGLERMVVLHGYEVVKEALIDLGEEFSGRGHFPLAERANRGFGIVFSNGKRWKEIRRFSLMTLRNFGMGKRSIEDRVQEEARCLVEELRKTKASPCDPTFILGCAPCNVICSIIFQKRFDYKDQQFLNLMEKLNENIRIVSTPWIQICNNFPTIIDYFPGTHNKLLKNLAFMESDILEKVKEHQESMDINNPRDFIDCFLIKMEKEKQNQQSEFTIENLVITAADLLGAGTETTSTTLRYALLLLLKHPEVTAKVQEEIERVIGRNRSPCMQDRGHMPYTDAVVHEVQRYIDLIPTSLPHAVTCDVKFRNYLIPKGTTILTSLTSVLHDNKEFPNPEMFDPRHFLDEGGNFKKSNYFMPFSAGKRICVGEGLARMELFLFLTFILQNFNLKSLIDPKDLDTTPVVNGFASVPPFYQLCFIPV", "test": "Cytochrome panel assay with activity outcomes. Panel member name: p450-cyp2c19 Compounds with AC50 equal or less than 10 uM are considered active", "assay_type": "functional", "conditions": "read-out: AC50"}, "[8]": {"biological_target": "T5, Short transient receptor potential channel 4 (Mus musculus, UniProt Q9QUQ5)", "T5 sequence (Q9QUQ5 whole entry)": "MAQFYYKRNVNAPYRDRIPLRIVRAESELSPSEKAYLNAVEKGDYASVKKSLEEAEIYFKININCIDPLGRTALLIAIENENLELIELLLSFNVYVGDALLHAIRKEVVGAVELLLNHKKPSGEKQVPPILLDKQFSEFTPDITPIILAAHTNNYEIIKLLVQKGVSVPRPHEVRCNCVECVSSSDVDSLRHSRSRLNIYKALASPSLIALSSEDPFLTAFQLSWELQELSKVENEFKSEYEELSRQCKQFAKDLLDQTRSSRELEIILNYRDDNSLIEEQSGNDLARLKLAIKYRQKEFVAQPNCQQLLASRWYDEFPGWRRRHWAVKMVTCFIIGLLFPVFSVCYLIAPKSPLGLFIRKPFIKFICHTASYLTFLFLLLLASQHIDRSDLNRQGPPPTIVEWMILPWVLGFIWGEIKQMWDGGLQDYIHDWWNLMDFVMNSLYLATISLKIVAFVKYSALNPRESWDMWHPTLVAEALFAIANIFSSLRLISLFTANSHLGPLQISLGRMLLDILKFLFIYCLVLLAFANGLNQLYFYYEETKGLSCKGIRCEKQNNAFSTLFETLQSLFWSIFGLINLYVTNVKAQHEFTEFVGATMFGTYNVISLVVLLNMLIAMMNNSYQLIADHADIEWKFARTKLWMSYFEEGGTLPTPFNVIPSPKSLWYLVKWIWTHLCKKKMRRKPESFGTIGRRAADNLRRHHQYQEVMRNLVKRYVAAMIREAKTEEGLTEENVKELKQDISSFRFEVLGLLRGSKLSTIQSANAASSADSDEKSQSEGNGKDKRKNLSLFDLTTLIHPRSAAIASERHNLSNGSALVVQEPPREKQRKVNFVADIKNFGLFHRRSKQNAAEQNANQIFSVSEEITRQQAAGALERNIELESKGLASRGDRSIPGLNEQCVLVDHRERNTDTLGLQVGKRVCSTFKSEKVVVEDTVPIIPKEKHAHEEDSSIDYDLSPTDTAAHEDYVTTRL", "test": "calcium entry via TRPC4 opening agents – cell-based, HEK293 TRPC4/mu-opioid, Fluo-4 calcium, dose response (AID 434937)", "assay_type": "functional"}}, "note": "Active and inactive are the calls of the source.", "data": [{"smiles": "O=C(CN1C(=O)C2C3CC(C(Br)C3Br)C2C1=O)OCC(=O)c1cccc([N+](=O)[O-])c1", "note": "(stereo unspecified)", "values": [{"measurement": "IC50", "setting": "[1]", "result": "20.4 µM (not active)"}, {"measurement": "EC50", "setting": "Beta-galactosidase", "result": "> 40 µM (inactive)"}]}, {"smiles": "O=C1/C(=C/c2cccnc2)SC(=S)N1Cc1ccco1", "values": [{"measurement": "AC50", "setting": "Cytochrome P450 2C9 [2]", "result": "6.31 µM (inconclusive)"}, {"measurement": "AC50", "setting": "HEK293", "result": "0.758 µM (active)"}, {"measurement": "AC50", "setting": "[3]", "result": "39.5 µM (active)"}]}, {"smiles": "CC(C)(C)OC(=O)[C@H](Cc1ccccc1)NC(=O)c1[nH]cnc1C(=O)N1CCN(C(=O)OC(C)(C)C)CC1", "values": [{"measurement": "IC50", "setting": "Vero", "result": "18.3 µM (active)"}, {"measurement": "EC50", "setting": "[4]", "result": "61.6 µM (active)"}, {"measurement": "EC50", "setting": "[5]", "result": "26.6 µM (active)"}, {"measurement": "EC50", "setting": "[6]", "result": "20 µM (active)"}]}, {"smiles": "Cc1ccc(NC(S)=NCCC2=CCCCC2)cc1", "values": [{"measurement": "AC50", "setting": "Escherichia coli", "result": "115 µM (active)"}]}, {"smiles": "CC(=O)NC(Cc1c[nH]cn1)C(=O)O", "note": "(stereo unspecified)", "values": [{"measurement": "AC50", "setting": "Escherichia coli", "result": "29.2 µM (active)"}]}, {"smiles": "Cc1ccc(C(=O)NC2CCCCC2)cc1", "values": [{"measurement": "AC50", "setting": "Cytochrome P450 2C9 [7]", "result": "inconclusive"}, {"measurement": "AC50", "setting": "Cytochrome P450 1A2", "result": "22.4 µM (inconclusive)"}, {"measurement": "AC50", "setting": "Cytochrome P450 2C19", "result": "25.1 µM (inconclusive)"}]}, {"smiles": "Cc1noc(C)c1C(=O)NNc1ccc(C(C)C)cc1", "values": [{"measurement": "IC50", "setting": "[1]", "result": "3.68 µM (active)"}, {"measurement": "EC50", "setting": "Beta-galactosidase", "result": "> 40 µM (inactive)"}]}, {"smiles": "Cc1ccc2c(c1)nnn2C1CCN(CC(=O)N2c3ccccc3CC2C)CC1", "note": "(stereo unspecified)", "values": [{"measurement": "AC50", "setting": "Cytochrome P450 2C9 [7]", "result": "inconclusive"}, {"measurement": "AC50", "setting": "Cytochrome P450 1A2", "result": "6.31 µM (inconclusive)"}, {"measurement": "EC50", "setting": "[4]", "result": "> 120 µM (not active)"}, {"measurement": "EC50", "setting": "[5]", "result": "81.6 µM (active)"}, {"measurement": "EC50", "setting": "[6]", "result": "> 120 µM (not active)"}]}, {"smiles": "CCC(=O)NC(C)C(c1cccs1)N1CCN(c2ccccc2)CC1", "note": "(stereo unspecified)", "values": [{"measurement": "EC50", "setting": "[8]", "result": "0.421 µM (active)"}]}, {"smiles": "Cn1c(N)c(C(=O)COC(=O)CCCN2C(=O)c3ccccc3C2=O)c(=O)n(C)c1=O", "values": [{"measurement": "AC50", "setting": "Escherichia coli", "result": "31.9 µM (active)"}]}, {"smiles": "COc1ccc(C)c(NC(=O)NCCc2c[nH]cn2)c1", "values": [{"measurement": "EC50", "setting": "[8]", "result": "1.88 µM (active)"}]}, {"smiles": "Cn1c(C(N)=O)cnc1Sc1ncc(C(F)(F)F)cc1Cl", "values": [{"measurement": "AC50", "setting": "Cytochrome P450 2C9 [7]", "result": "inconclusive"}, {"measurement": "AC50", "setting": "Cytochrome P450 1A2", "result": "28.2 µM (inconclusive)"}]}]}
